Test results as given in patent US6846845B2, “Heat shock protein inducer” (Eisai Co., Ltd., priority 2002, dated 2005).

Columns and labels:
Type in all cases: in vivo, rat
HSP70 = assay: Effect of chelerythrine pretreatment on GGA-induced HSP70 expression in the heart (Western immunoblotting), Example 2; conditions: 24 h after GGA 200 mg/kg oral or vehicle; chelerythrine 5 mg/kg i.v. pretreatment, FIG. 8
Experimental: (§1) Male Sprague-Dawley rats (220-250 g) were used. GGA, as an emulsion with 5% gum arabic and 0.008% tocopherol, was given orally at a dose of 200 mg/kg. Rats were classified into 4 groups. FIG. 7 is a diagrammatic representation of experimental protocol. […] Twenty-four hours after oral administration of GGA or vehicle, rats were anesthetized (sodium pentobarbital, 50 mg/kg IP) and heparinized (500 IU/kg IP). Hearts were excised, immediately frozen in liquid nitrogen, and stored at −70° C. until use for Western blot analysis (n=4 for each group). […]
(§2) To analyze the expression of HSP70, the frozen heart samples were homogenized with SDS sample buffer (pH 6.8, 20% glycerol, 6% SDS, 0.12M Tris), centrifuged and boiled (Maloyan A, Palmon A, Horowitz M. Heat acclimation increases the basal HSP70 level and alters its production dynamics during heat stress. Am J Physiol. 1999; 276:R1506-R1515.). […] The total protein concentration of heart was quantified by the Bradford method (Bradford MM. A rapid and sensitive method for quantitation of microgram quantities of protein utilizing the principle of protein-dye binding. Anal. Biochem. 1976;72:248-254). […] The proteins were detected by ECL with exposure to Hyperfilm (Amersham Pharmacia). The amount of protein on the immunoblots was quantified using National Institutes of Health image software. […]

[1] = tested on: heat shock factor 1 (HSF1); assay: HSF1 phosphorylation and translocation in cytosolic and nuclear heart fractions (Western immunoblotting); conditions: 24 h after GGA 200 mg/kg oral or vehicle; chelerythrine 5 mg/kg i.v. pretreatment, FIG. 9
Experimental: as §1, §2

PKCδ = assay: Translocation of PKCδ in particulate and cytosolic heart fractions (Western immunoblotting); conditions: 24 h after GGA 200 mg/kg oral or vehicle; chelerythrine 5 mg/kg i.v. pretreatment, FIG. 10
PKC (α, β, γ and ε) = assay: Translocation of PKC isoforms α, β, γ and ε in particulate and cytosolic heart fractions (Western immunoblotting); conditions: 24 h after GGA 200 mg/kg oral or vehicle; chelerythrine 5 mg/kg i.v. pretreatment, FIG. 10
isolated perfused heart = assay: Isolated perfused heart experiments (Langendorff, 20 min no-flow global ischemia, 30 min reperfusion), Example 2
Experimental: Male Sprague-Dawley rats (220-250 g) were used. GGA, as an emulsion with 5% gum arabic and 0.008% tocopherol, was given orally at a dose of 200 mg/kg. Rats were classified into 4 groups. FIG. 7 is a diagrammatic representation of experimental protocol. […] Twenty-four hours after oral administration of GGA or vehicle, rats were anesthetized (sodium pentobarbital, 50 mg/kg IP) and heparinized (500 IU/kg IP). Hearts were excised, immediately frozen in liquid nitrogen, and stored at −70° C. until use for Western blot analysis (n=4 for each group). To examine the cardiac function during ischemia and reperfusion, hearts of each group were prepared for isolated perfused experiments using Langendorff apparatus (n=7-9 for each group, FIG. 7).
Twenty-four hours after administration-of 200 mg/kg of GGA or vehicle, rats of 4 groups were heparinized (500 IU/kg, IP) and anesthetized with sodium pentobarbital (50 mg/kg, IP). Each heart was isolated and perfused retrogradely using the Langendorff method with Krebs-Henseleit buffer (pH 7.4, [in mM] 118 NaCl, 4.7 KCl, 2.5 CaCl2, 1.2 MgSO4, 1.2 KH2PO4, 25.0 Na2HCO3, 11.0 glucose) equilibrated with 95% O2-5% CO2 gas mixture at 36.5° C. at a constant pressure of 75 mm Hg. A water-filled latex balloon was inserted through the mitral orifice into the left ventricle (LV) and the LV end-diastolic pressure (LVEDP) was adjusted to 0-5 mm Hg. During the initial 10 min of constant pressure perfusion, the perfusion flow rate was determined for each heart, which was then perfused at a determined perfusion rate using a microtube pump while the heart was covered with water-jacketed glassware and the relative humidity maintained at 90% or more. Normothermic no-flow global ischemia was initiated for 20 min, followed by reperfusion for 30 min. The coronary effluent during the 30 min of reperfusion period was collected for measurement of creatine kinase content (released CK).
LV pressure was monitored using a pressure transducer to obtain the peak positive and negative first derivatives of LV pressure (dP/dtmax and dP/dtmin). […] Coronary perfusion pressure (CPP) was defined as the hydraulic pressure measured at the level of aortic cannulation. LV pressure, CPP and electrocardiogram were continuously recorded on a polygraph recorder (WS-681G, Nihon Kohden) and stored on a PCM data recorder (RD-111T, TEAC) for later analysis.
Data are expressed as mean ±SEM. Serial changes in LVDP, LVEDP, CPP, and dP/dt were analyzed by two-way analysis of variance (ANOVA) followed by the Bonferroni/Dunn test, unless otherwise specified. Comparisons among groups with respect to the hemodynamic parameters at baseline and the ratio of released CK to ventricular weight were analyzed by one-way ANOVA followed by the Bonferroni/Dunn test. […]

SMILES: COc1ccc2c(c[n+](C)c3c4cc5c(cc4ccc23)OCO5)c1OC [chelerythrine, reference compound]
- HSP70 expression in the heart (relative density to control group) (HSP70): did not influence
- amount of phosphorylated form of HSF1 in the nuclear fraction [1]: did not significantly influence
- PKCδ in the particulate fraction / particulate/cytosol ratio versus CNT group (PKCδ): did not influence
- PKC isoforms α, β, γ and ε in cytosolic and particulate fractions (PKC (α, β, γ and ε)): not influenced
- released creatine kinase (CK) relative to ventricular weight (isolated perfused heart; 30-min reperfusion period after 20 min ischemia, FIG. 12): similar
- recovery of LVDP, LVEDP and dP/dt on reperfusion versus CNT group (isolated perfused heart; 20 min no-flow global ischemia, 30 min reperfusion, FIG. 11): similar
